Structures can show the parent of a compound that is named as a salt.
Assays:
Aβ (amyloid β protein) = experiment: Inhibition of Aβ generation in B103/APP cells (Aβ42 ELISA); assay type: cell-based; details: Rattus norvegicus, 72 hrs
Protocol: The APP gene was inserted into B103 cells so that APP could be stably expressed and the resulting B103/APP cells were used to confirm inhibition of APP phosphorylation and Aβ generation.
Further, to confirm whether Aβ generation is reduced due to APP phosphorylation inhibition, 5×10^5 B103/APP cells were cultured in a 6-well plate for 16 hrs. Afterwards, the compounds obtained in the above Examples were added at 100 nM, 75 nM, 50 nM, 25 nM, 12.5 nM to a medium containing 500 ug/ml of G418 and 0.5% FBS and incubated for 72 hrs. After 72 hrs, the amount of Aβ was quantified using the medium by Human Aβ42 ELISA kit (Invitrogen).

[1] = test system: Human colon carcinoma HCT116 cell line; experiment: Tumor growth inhibition in an animal model (HCT116 xenograft); assay type: in vivo, Balb/c nude mouse; details: oral daily for 12 days; for tumor growth inhibition: vs vehicle control
Protocol: Tumor size was measured twice a week using Caliper. […] A vehicle control was 20% propylene glycol (PG) and a positive control was Xeloda at 100 mg/kg.

[2] = test system: Human glioblastoma U-87MG cell line; experiment: Tumor growth inhibition by combined administration in an animal model (U-87MG xenograft); details: oral daily for 30 days; for tumor growth inhibition: vs vehicle control
Protocol: Human glioblastoma U-87MG cell line of 5×10^6 cells/0.1 ml PBS was injected subcutaneously into the right flank of a Balb/c nude mouse. When a tumor grew to 150 mm^3, 5 mice were assigned for each group so that tumor sizes of all groups are consistent and a test compound was orally administered daily. Tumor size was measured three times a week using Caliper. […] For the combined administration, TMZ was orally administered daily for the first 5 days. For the single administration, the compound of Example 61 was orally administered daily for 30 days. For the combined administration, the compound of Example 61 was administered orally daily for 34 days. 20% propylene glycol (PG) was used as a vehicle control. Tumor size (volume) was calculated from the tumor length measured in each animal using the following Equation 1.
Tumor volume=(length of major axis×length of minor axis)/2 [Equation 1]

SMILES: Cc1cc(-c2nc(-c3ccnc(N)c3F)ccc2O)nc(N)n1 [Example 71, 2′-amino-6-(2-amino-6-methylpyrimidin-4-yl)-3′-fluoro-[2,4′-bipyridin]-5-ol 3hydrochloride]
- inhibition at 0.0125 µM (Aβ (amyloid β protein); 12.5 nM): 37.6%
- inhibition at 0.025 µM (Aβ (amyloid β protein); 25 nM): 36.2%
- inhibition at 0.05 µM (Aβ (amyloid β protein); 50 nM): 46.7%
- inhibition at 0.075 µM (Aβ (amyloid β protein); 75 nM): 76.8%
- inhibition at 0.1 µM (Aβ (amyloid β protein); 100 nM): 100%

SMILES: Nc1nccc(-c2ccc(O)c(-c3ccnc(N)n3)n2)n1 [Example 61, 2,6-bis(2-aminopyrimidin-4-yl)pyridin-3-ol 3hydrochloride]
- Tumor size ([1]; 1 mpk): 1082.4 ± 994.6 mm^3
- tumor growth inhibition ([1]; 1 mpk): 41.3%
- Tumor size ([1]; 3 mpk): 773.7 ± 253.9 mm^3
- tumor growth inhibition ([1]; 3 mpk): 58.0%
- Tumor size ([1]; 10 mpk): 647.4 ± 462.1 mm^3
- tumor growth inhibition ([1]; 10 mpk): 64.9%
- Tumor size ([1]; 30 mpk): 403.4 ± 224.1 mm^3
- tumor growth inhibition ([1]; 30 mpk): 78.1%
- Tumor size ([2]; 15 mpk alone): 3503.3 ± 674.9 mm^3
- tumor growth inhibition ([2]; 15 mpk alone): 16.8%
- Tumor size ([2]; 30 mpk alone): 2015.0 ± 1023 mm^3
- tumor growth inhibition ([2]; 30 mpk alone): 52.2%
